Laboratory results taken from patent US6706740B2, “Fungicidal heterocyclic aromatic amides and their compositions, methods of use and preparation” (Dow AgroSciences LLC, priority 1999, dated 2004).
Like-named read-outs stand apart in the source and are kept apart here.

Legend:
[1] = test system: Stagonospora nodorum (Leptosphaeria nodorum—LEPTNO); experiment: In vitro fungal growth inhibition, Stagonospora nodorum (LEPTNO); format: cell-based; settings: Leptosphaeria; 25 ppm in growth medium; read-out: LEPTNO in vitro Growth Inhibition
[2] = test system: Rhizoctonia solani (RHIZSO); experiment: microbe, parasite or virus in culture; format: cell-based; settings: Rhizoctonia solani, read-out: RHIZSO in vitro Growth Inhibition
Ustilago maydis (USTIMA) = experiment: microbe, parasite or virus in culture; format: cell-based; settings: Mycosarcoma maydis, read-out: USTIMA in vitro Growth Inhibition
[3] = test system: Leptosphaeria nodorum—LEPTNO; experiment: Glume Blotch of Wheat, in vivo whole plant, 24 Hour Protectant
[4] = test system: Magnaporthe grisea (Pyricularia oryzae—PYRIOR); experiment: microbe, parasite or virus in culture; format: cell-based; settings: Pyricularia oryzae, read-out: PYRIOR in vitro Growth Inhibition
Septoria tritici—SEPTTR = experiment: Leaf Blotch of Wheat, in vivo whole plant, 24 Hour Protectant
[5] = test system: Phytophthora infestans (PHYTIN); experiment: microbe, parasite or virus in culture; format: cell-based; settings: Phytophthora infestans, read-out: PHYTIN in vitro Growth Inhibition
Erysiphe graminis—ERYSGT = experiment: Powdery Mildew of Wheat, in vivo whole plant, 24 Hour Protectant
[6] = test system: Mycosphaerella graminicola (Septoria tritici—SEPTTR); experiment: In vitro fungal growth inhibition, Mycosphaerella graminicola (SEPTTR); format: cell-based; settings: Zymoseptoria tritici; 25 ppm in growth medium; read-out: SEPTTR in vitro Growth Inhibition
[7] = test system: Phytophthora infestans—PHYTIN; experiment: whole plant or invertebrate; format: in vivo; settings: Phytophthora, in Solanum lycopersicum, 24 h, read-out: PHYTIN in vivo 1 Day Protectant
[8] = test system: Puccinia recondita—PUCCRT; experiment: Brown Rust of Wheat, in vivo whole plant, 24 Hour Protectant
[9] = Leptosphaeria; 100 ppm spray, 24 hour protectant, wheat; control of fungal infection vs untreated plants; read-out: LEPTNO in vivo 1 Day Protectant
[10] = Zymoseptoria tritici, 24 h, 100 ppm spray, 24 hour protectant, wheat; control of fungal infection vs untreated plants; read-out: SEPTTR in vivo 1 Day Protectant
[11] = Erysiphe; 100 ppm spray, 24 hour protectant, wheat; control of fungal infection vs untreated plants; read-out: ERYSGT in vivo 1 Day Protectant
[12] = Puccinia; 100 ppm spray, 24 hour protectant, wheat; control of fungal infection vs untreated plants; read-out: PUCCRT in vivo 1 Day Protectant
[13] = 100 ppm spray, wheat, 24 hour protectant, % control of fungal infection vs untreated plants
[14] = Leptosphaeria; 100 ppm spray, wheat, 24 hour protectant; control of fungal infection vs untreated plants; read-out: LEPTNO in vivo 1 Day Protectant
[15] = Zymoseptoria tritici, 24 h, 100 ppm spray, wheat, 24 hour protectant; control of fungal infection vs untreated plants; read-out: SEPTTR in vivo 1 Day Protectant
[16] = Erysiphe; 100 ppm spray, wheat, 24 hour protectant; control of fungal infection vs untreated plants; read-out: ERYSGT in vivo 1 Day Protectant
[17] = Puccinia; 100 ppm spray, wheat, 24 hour protectant; control of fungal infection vs untreated plants; read-out: PUCCRT in vivo 1 Day Protectant

SMILES	inhibition at 25 ppm [1]	inhibition at 25 ppm [2]	inhibition at 25 ppm (Ustilago maydis (USTIMA))	pest or weed control at 100 ppm [3, 9]	inhibition at 25 ppm [4]	pest or weed control at 100 ppm (Septoria tritici—SEPTTR; [10])	inhibition at 25 ppm [5]	pest or weed control at 100 ppm (Erysiphe graminis—ERYSGT; [11])	inhibition at 25 ppm [6]	pest or weed control at 100 ppm [7]	pest or weed control at 100 ppm [8, 12]	PUCCRT in vivo 1 Day Protectant [8, 13]	other results
Cc1cc(C)cc(NC(=O)c2ncccc2O)c1 [Compound 215]	< 80%	< 80%	< 80%	< 25%	< 80%	< 25%	< 80%	< 25%	> 80%	< 25%	< 25%	–	–
COc1ccnc(C(=O)NC2CCN(C(=O)CCc3ccccc3)CC2)c1O [Compound 309]	< 80%	< 80%	< 80%	25 to 74%	< 80%	< 25%	< 80%	25 to 74%	< 80%	< 25%	< 25%	–	–
COc1ccnc(C(=O)N[C@H]2COC(=O)[C@H](Cc3ccccc3)[C@@H](OC(C)=O)[C@H](C)OC2=O)c1OC(C)=O [Compound 596]	< 80%	< 80%	< 80%	–	> 80%	–	> 80%	–	< 80%	< 25%	–	+ +	LEPTNO in vivo 1 Day Protectant [3, 13]: + +; pest or weed control at 100 ppm (Septoria tritici—SEPTTR; Zymoseptoria tritici, 24 h, 100 ppm spray, wheat, 24 hour protectant, % control of fungal infection vs untreated plants; read-out: SEPTTR in vivo 1 Day Protectant): 25 to 74%; pest or weed control at 100 ppm (Erysiphe graminis—ERYSGT; Erysiphe; 100 ppm spray, wheat, 24 hour protectant, % control of fungal infection vs untreated plants; read-out: ERYSGT in vivo 1 Day Protectant): < 25%
CCCCCCC(=O)Oc1c(OC)ccnc1C(=O)N[C@H]1COC(=O)[C@H](Cc2ccccc2)[C@@H](OC(=O)C(C)C)[C@H](C)OC1=O [Compound 613]	< 80%	< 80%	< 80%	–	< 80%	–	> 80%	–	< 80%	25 to 74%	–	+ +	pest or weed control at 100 ppm ([3]; Leptosphaeria; 100 ppm spray, wheat, 24 hour protectant, % control of fungal infection vs untreated plants; read-out: LEPTNO in vivo 1 Day Protectant): 25 to 74%; SEPTTR in vivo 1 Day Protectant (Septoria tritici—SEPTTR; [13]): + +; ERYSGT in vivo 1 Day Protectant (Erysiphe graminis—ERYSGT; [13]): + +
COc1ccnc(C(=O)NC2CC(C)(C)CC(C)(C3CC3)C2)c1O (stereo not shown) [Compound 252]	> 80%	> 80%	< 80%	25 to 74%	> 80%	25 to 74%	> 80%	< 25%	> 80%	25 to 74%	25 to 74%	–	–
COc1ccnc(C(=O)Nc2ccc(Sc3ccc(C(F)(F)F)cc3)cc2)c1O [Compound 446]	< 80%	< 80%	< 80%	–	< 80%	–	< 80%	–	< 80%	25 to 74%	–	–	pest or weed control at 100 ppm [3, 14]: < 25%; pest or weed control at 100 ppm (Septoria tritici—SEPTTR; [15]): < 25%; pest or weed control at 100 ppm (Erysiphe graminis—ERYSGT; [16]): < 25%; pest or weed control at 100 ppm [8, 17]: < 25%
CCOC(=O)Oc1c(OC)ccnc1C(=O)N[C@H]1COC(=O)[C@H](Cc2ccccc2)[C@@H](OC(=O)C(C)C)[C@H](C)OC1=O [Compound 679]	< 80%	> 80%	< 80%	–	> 80%	–	< 80%	–	< 80%	< 25%	–	+ +	LEPTNO in vivo 1 Day Protectant [3, 13]: + +; SEPTTR in vivo 1 Day Protectant (Septoria tritici—SEPTTR; [13]): + +; ERYSGT in vivo 1 Day Protectant (Erysiphe graminis—ERYSGT; [13]): + +
COc1ccnc(C(=O)Nc2ccc(C(=O)Oc3ccc(C(F)(F)F)cc3)cc2)c1O [Compound 452]	< 80%	< 80%	< 80%	–	< 80%	–	< 80%	–	< 80%	< 25%	–	–	pest or weed control at 100 ppm [3, 14]: 25 to 74%; pest or weed control at 100 ppm (Septoria tritici—SEPTTR; [15]): 25 to 74%; pest or weed control at 100 ppm (Erysiphe graminis—ERYSGT; [16]): < 25%; pest or weed control at 100 ppm [8, 17]: < 25%
